According to patent US8129327B2, “Packaging for high moisture bar soap” (The Procter & Gamble Company, priority 2006, dated 2012):

Assays:
[1] = test system: penicillium chrysogenum; assay: inhibition of mold growth on paperboard package containing high moisture bar soap; settings: fungicide-treated paperboard package containing high moisture bar soap
Excerpt: (§1) The present invention further relates to a method of inhibiting the growth of mold, especially certain species of mold such as aspergillus sydowii and/or penicillium chrysogenum, that can grow on a paperboard package containing a high moisture bar soap composition.
(§2) Such a fungicide material is commercially available from Intace S.A. under the tradename INTACE B-6773.

[2] = test system: aspergillus sydowii; assay: as above; settings: fungicide-treated paperboard package containing high moisture bar soap
Excerpt: as §1, §2

## COC(=O)Nc1nc2ccccc2[nH]1 [carbendazim]
[1]
  inhibition of the growth of mold on paperboard packaging: typically resistant
[2]
  inhibition of the growth of mold on paperboard packaging: typically resistant
